Source: PubChem BioAssay (NCI)
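Results reflect a 48-hour exposure of cells in 96-well plates to compound at five concentrations. The concentration for full growth arrest is given as TGI.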

Key:
Assay in all cases: growth of human tumour cells (NCI), 48 h
SN12C renal = test system: SN12C renal
RPMI-8226 leukemia = test system: RPMI-8226 leukemia
OVCAR-3 ovarian = test system: OVCAR-3 ovarian
IGROV1 ovarian = test system: IGROV1 ovarian
NCI-H23 lung = test system: NCI-H23 lung
SK-OV-3 ovarian = test system: SK-OV-3 ovarian
DU-145 prostate = test system: DU-145 prostate
HL-60(TB) leukemia = test system: HL-60(TB) leukemia
A498 renal = test system: A498 renal
SK-MEL-5 melanoma = test system: SK-MEL-5 melanoma
HT29 colon = test system: HT29 colon
SF-268 CNS = test system: SF-268 CNS
OVCAR-4 ovarian = test system: OVCAR-4 ovarian
PC-3 prostate = test system: PC-3 prostate

SMILES	TGI (SN12C renal) [µM]	TGI (RPMI-8226 leukemia) [µM]	TGI (OVCAR-3 ovarian) [µM]	TGI (IGROV1 ovarian) [µM]	TGI (NCI-H23 lung) [µM]	TGI (SK-OV-3 ovarian) [µM]	TGI (DU-145 prostate) [µM]	TGI (HL-60(TB) leukemia) [µM]	TGI (A498 renal) [µM]	TGI (SK-MEL-5 melanoma) [µM]	TGI (HT29 colon) [µM]	TGI (SF-268 CNS) [µM]	TGI (OVCAR-4 ovarian) [µM]	TGI (PC-3 prostate) [µM]
Cc1cccc(C(=O)O)c1CC1NCCC2c3ccccc3NC12 (centres undefined)	> 100	> 100	> 100	> 100	> 100	> 100	> 100	> 100	> 100	> 100	> 100	> 100	> 100	> 100
O=c1c2c3c(sc2nc2n1N=C(c1ccc([N+](=O)[O-])cc1)CS2)CCCC3	> 100	> 100	> 100	> 100	> 100	> 100	> 100	> 100	> 100	> 100	> 100	> 100	> 100	> 100
CC(=O)c1ccccc1NS(=O)(=O)c1ccc2nc(C)n(NS(=O)(=O)c3ccccc3C(C)=O)c(=O)c2c1	> 100	> 100	> 100	> 100	> 100	> 100	> 100	> 100	> 100	> 100	> 100	> 100	> 100	> 100
CCOC(=O)N1N(c2ccccc2)C(=O)C1(c1ccccc1)c1ccccc1	> 100	83.5	> 100	> 100	> 100	> 100	> 100	> 100	> 100	> 100	> 100	> 100	> 100	> 100
C=CCn1c(-c2ccc(Cl)cc2Cl)csc1=Nc1c(C)n(C)n(-c2ccccc2)c1=O	27.5	> 46.3	23.7	31.5	23.4	19.4	27.3	25.8	25.4	13.1	25.3	33.4	28.3	20.6
Cc1nc2ccccc2n1Cc1nnc2n1N=C(c1ccccc1)CS2	> 100	> 100	> 100	20.1	> 100	> 100	> 100	95.3	> 100	> 100	> 100	> 100	> 100	53.6
NC(=S)N/N=C1\CCCCC1C(O)(C(F)(F)Cl)C(F)(F)Cl (centres undefined)	> 10	> 10	> 10	> 10	> 10	> 10	> 10	> 10	> 10	> 10	> 10	> 10	> 10	> 10
CCCCN1C(=O)CS/C1=N/Nc1nc2c([nH]1)c(=O)n(C)c(=O)n2C	> 100	> 100	> 100	> 100	> 100	> 100	> 100	> 100	> 100	> 100	> 100	> 100	71.4	> 100
CC(=O)C1=C(C)N(c2ccccc2)C2(O)C=CC(=O)C3=C(O)c4ccccc4C(=O)C312 (centres undefined)	30.3	> 100	11.4	34.3	46.3	> 100	28.5	74.1	39.4	24.9	> 100	57.8	72.1	41.5
O[C@H]1[C@H](O)[C@@H](Cn2nnc(-c3ccccc3)c2-c2ccccc2)OCO[C@@H]1Cn1nnc(-c2ccccc2)c1-c1ccccc1	7.55	5.79	9.14	14.2	26.2	27.2	23.2	> 24	16	10.2	3.61	25	26.9	8.83
CCN(CC)CCNC(=O)c1nn(-c2ccc(Cl)cc2)c2c1CCc1cc(OC)ccc1-2	24.2	8.72	20.6	26.6	25.8	27.5	29.1	14.5	21.9	3.17	6.7	22.2	21.9	26.3
